The values that follow are results of earlier work, collected in article PMC12388523, “Flavonoids and Sesquiterpene Lactones from Lychnophora ericoides (Arnica-Do-Cerrado) and Their In Vitro Effects on Multiple Myeloma and Acute Myeloid Leukemia” (Metabolites, 2025).

The test system of the data set is HS-5 cells. More on the design: method as in PMID 36768497. The settings on record: cited from earlier work.

Take `N.N.[Cl][Pt][Cl]` [Cisplatin]: the “concentration needed to inhibit HS-5 cells” value is given as “above 1 µM”.
